Measurements from paper PMC4476799, “Englerin A Agonizes the TRPC4/C5 Cation Channels to Inhibit Tumor Cell Line Proliferation” (PLoS ONE, 2015).
Like-named read-outs stand apart in the source and are kept apart here.

System: cancer cell lines from the cancer cell line encyclopedia (CCLE)
Experiment: Cell line profiling (CLiP) proliferation experiment
Format: cell-based
Parameters: ACTIVITY_AREA: scale not given here; AMAX: unit not given here
Conditions: for IC50: read-out: Crossing Point; for EC50: read-out: Inflection Point
Experimental: Compound profiling experiment and data analysis was performed as previously described. Data was imported and plotted using the Tibco Spotfire DXP application. Lines were categorized as sensitive, intermediate and refractory as follows: Amax<-40 & Inflection Point <2 ~ Sensitive, Amax>-20 & Inflection Point >10 ~ Refractory, all else were called Intermediate. Cancer Cell line HG-U133 Plus 2 data was processed and normalized as described. […] Five sets of refractory cell lines were generated from the pool of refractory cell lines trying to match the lineage composition of the set of sensitive cell lines. The limma package was used as previously described to perform the statistical comparison.

[1] = CAS-1, central_nervous_system, astrocytoma_Grade_IV
[2] = CCK-81, large_intestine, adenocarcinoma
[3] = CCRF-CEM, haematopoietic_and_lymphoid_tissue, acute_lymphoblastic_T_cell_leukaemia
[4] = CFPAC-1, pancreas, ductal_carcinoma
[5] = CI-1, haematopoietic_and_lymphoid_tissue, B_cell_lymphoma_unspecified
[6] = CMK, haematopoietic_and_lymphoid_tissue, acute_myeloid_leukaemia
[7] = CMK-11-5, haematopoietic_and_lymphoid_tissue, acute_myeloid_leukaemia
[8] = CML-T1, haematopoietic_and_lymphoid_tissue, blast_phase_chronic_myeloid_leukaemia
[9] = COLO 205, large_intestine, adenocarcinoma
[10] = COLO 668, lung, small_cell_carcinoma
[11] = COLO 775, haematopoietic_and_lymphoid_tissue, chronic_myeloid_leukaemia
[12] = COLO-320, large_intestine, adenocarcinoma
[13] = COLO-680N, oesophagus, squamous_cell_carcinoma
[14] = COR-L23, lung, large_cell_carcinoma
[15] = COR-L47, lung, small_cell_carcinoma
[16] = COR-L88, lung, small_cell_carcinoma
[17] = COR-L279, lung, small_cell_carcinoma
[18] = Calu-6, lung, undifferentiated_carcinoma
[19] = Capan-1, pancreas, ductal_carcinoma
[20] = DBTRG-05MG, central_nervous_system, astrocytoma_Grade_IV
[21] = DK-MG, central_nervous_system, astrocytoma_Grade_IV
[22] = DLD-1, large_intestine, adenocarcinoma
[23] = DMS 114, lung, small_cell_carcinoma
[24] = DMS 273, lung, small_cell_carcinoma
[25] = Daoy, central_nervous_system, NS
[26] = Detroit 562, upper_aerodigestive_tract, NS
[27] = EFM-192A, cell line EFM-192A, breast
[28] = HCC1500, cell line HCC1500, breast

## CC(C)[C@@]12C[C@@H](O)[C@@](C)(O1)[C@@H]1CC[C@@H](C)[C@H]1[C@@H]2OC(=O)/C=C/c1ccccc1 [Englerin B]
524 cancer cell lines from the CCLE
  effect on proliferation of cancer cell lines: no cancer cell lines have their growth potently inhibited
A4/Fuk cells
  IC50: 18.1 µM
  EC50: 18.1 µM
ACC-MESO-1, ACC-MESO-1 cells
  IC50: > 30 µM
ACC-MESO-1, cell line ACC-MESO-1, pleura, NS
  IC50: > 30 µM
BDCM cells
  IC50: 16.9 µM
  EC50: 16.9 µM
BHY cells
  EC50: 9.33 µM
BICR 6 cells
  IC50: 23 µM
  EC50: 23 µM
BICR 22 cells
  EC50: 15 µM
CAL-78, bone, dedifferentiated
  IC50: > 30 µM
CAL-78 cells
  IC50: > 30 µM
CAMA-1, breast, NS
  ACTIVITY_AREA: 21.9
  AMAX: -43.81
  RESPONSE: INTERMEDIATE
[1]
  ACTIVITY_AREA: 8.27
  AMAX: -27.8
  RESPONSE: INTERMEDIATE
  IC50: > 30 µM
CAS-1 cells
  IC50: > 30 µM
[2]
  ACTIVITY_AREA: 19.43
  AMAX: -61.47
  RESPONSE: INTERMEDIATE
  IC50: 24.9 µM
  EC50: 24.9 µM
CCK-81 cells
  IC50: 24.9 µM
  EC50: 24.9 µM
[3]
  ACTIVITY_AREA: 12.38
  AMAX: -48.26
  RESPONSE: INTERMEDIATE
[4]
  ACTIVITY_AREA: 25.86
  AMAX: -50.08
  RESPONSE: INTERMEDIATE
CHL-1, skin, NS
  ACTIVITY_AREA: 19.98
  AMAX: -60.11
  RESPONSE: INTERMEDIATE
CHP-212, autonomic_ganglia, NS
  ACTIVITY_AREA: 33.44
  AMAX: -55.99
  RESPONSE: INTERMEDIATE
[5]
  ACTIVITY_AREA: 19.7
  AMAX: 16.67
  RESPONSE: REFRACTORY
  IC50: > 30 µM
[6]
  ACTIVITY_AREA: 61.63
  AMAX: -8.06
  RESPONSE: REFRACTORY
  IC50: > 30 µM
CMK-11-5, CMK-11-5, haematopoietic_and_lymphoid_tissue, acute_myeloid_leukaemia
  IC50: 24.1 µM
[7]
  ACTIVITY_AREA: 101.26
  AMAX: -51.95
  RESPONSE: INTERMEDIATE
CML-T1, CML-T1, haematopoietic_and_lymphoid_tissue, blast_phase_chronic_myeloid_leukaemia
  IC50: 17.9 µM
[8]
  ACTIVITY_AREA: 42.33
  AMAX: -73.13
  RESPONSE: INTERMEDIATE
[9]
  ACTIVITY_AREA: 33.02
  AMAX: -61.38
  RESPONSE: INTERMEDIATE
[10]
  ACTIVITY_AREA: 28.83
  AMAX: -55.03
  RESPONSE: INTERMEDIATE
COLO 699, COLO-699, lung, adenocarcinoma
  IC50: 3.62 µM
COLO 704, COLO-704, ovary, NS
  IC50: 6.82 µM
COLO 741, skin, NS
  ACTIVITY_AREA: 12.88
  AMAX: -37.55
  RESPONSE: INTERMEDIATE
[11]
  ACTIVITY_AREA: 59.22
  AMAX: -93.44
  RESPONSE: INTERMEDIATE
  IC50: 9.44 µM
  EC50: 9.31 µM
COLO 792, skin, NS
  ACTIVITY_AREA: 11.82
  AMAX: -22.14
  RESPONSE: INTERMEDIATE
  IC50: > 30 µM
  EC50: 16 µM
COLO 792 cells
  IC50: > 30 µM
  EC50: 16 µM
COLO 829, skin, NS
  ACTIVITY_AREA: 31.7
  AMAX: -7.17
  RESPONSE: REFRACTORY
[12]
  ACTIVITY_AREA: 102.29
  AMAX: -70.01
  RESPONSE: INTERMEDIATE
[13]
  ACTIVITY_AREA: 26.11
  AMAX: -34.59
  RESPONSE: INTERMEDIATE
COLO-699, lung, adenocarcinoma
  ACTIVITY_AREA: 153.56
  AMAX: -71.88
  RESPONSE: INTERMEDIATE
COLO-704, ovary, NS
  ACTIVITY_AREA: 138.81
  AMAX: -63.22
  RESPONSE: INTERMEDIATE
COLO-800, skin, NS
  ACTIVITY_AREA: 66.95
  AMAX: -43.63
  RESPONSE: INTERMEDIATE
[14]
  ACTIVITY_AREA: 32.4
  AMAX: -39.64
  RESPONSE: INTERMEDIATE
[15]
  ACTIVITY_AREA: 92.1
  AMAX: -15.76
  RESPONSE: REFRACTORY
[16]
  ACTIVITY_AREA: 20.83
  AMAX: -31.56
  RESPONSE: INTERMEDIATE
[17]
  ACTIVITY_AREA: 130.29
  AMAX: -86.84
  RESPONSE: INTERMEDIATE
COV318, COV318, ovary, NS
  IC50: 25.6 µM
  EC50: 25.6 µM
COV318, ovary, NS
  ACTIVITY_AREA: 39.59
  AMAX: -54.13
  RESPONSE: INTERMEDIATE
COV504, COV504, ovary, NS
  IC50: > 30 µM
COV504, cell line COV504 (ovary, NS)
  IC50: > 30 µM
COV504, ovary, NS
  ACTIVITY_AREA: 33.53
  AMAX: -45.79
  RESPONSE: INTERMEDIATE
COV644, ovary, NS
  ACTIVITY_AREA: 35.24
  AMAX: -28.86
  RESPONSE: INTERMEDIATE
  IC50: > 30 µM
  EC50: 3.05 µM
COV644 cells
  IC50: > 30 µM
  EC50: 3.05 µM
Calu-3, lung, adenocarcinoma
  ACTIVITY_AREA: 19.78
  AMAX: 4.65
  RESPONSE: REFRACTORY
[18]
  ACTIVITY_AREA: 28.42
  AMAX: -47.13
  RESPONSE: INTERMEDIATE
Caov-3, ovary, adenocarcinoma
  ACTIVITY_AREA: 128.76
  AMAX: -55.06
  RESPONSE: INTERMEDIATE
[19]
  ACTIVITY_AREA: 29.63
  AMAX: -25.75
  RESPONSE: INTERMEDIATE
Ci-1, CI-1 cells
  IC50: > 30 µM
DAN-G cells
  IC50: 29.3 µM
  EC50: 29.3 µM
DAN-G, pancreas, NS
  ACTIVITY_AREA: 26.93
  AMAX: -50.77
  RESPONSE: INTERMEDIATE
  IC50: 29.3 µM
  EC50: 29.3 µM
[20]
  ACTIVITY_AREA: 21.88
  AMAX: -30.64
  RESPONSE: INTERMEDIATE
[21]
  ACTIVITY_AREA: 33.27
  AMAX: -67.8
  RESPONSE: INTERMEDIATE
  IC50: 16.1 µM
  EC50: 12.5 µM
[22]
  ACTIVITY_AREA: 71.46
  AMAX: -59.67
  RESPONSE: INTERMEDIATE
[23]
  ACTIVITY_AREA: 21.61
  AMAX: -57.16
  RESPONSE: INTERMEDIATE
[24]
  ACTIVITY_AREA: 29.68
  AMAX: -73.92
  RESPONSE: INTERMEDIATE
[25]
  ACTIVITY_AREA: 43
  AMAX: -39.21
  RESPONSE: INTERMEDIATE
[26]
  ACTIVITY_AREA: 35.45
  AMAX: -46.18
  RESPONSE: INTERMEDIATE
[27]
  IC50: 22.9 µM
  EC50: 22.9 µM
EFM-192A, cell line EFM-192A
  EC50: 22.9 µM
GP2d, cell line GP2d, large_intestine
  IC50: > 30 µM
GP2d, cell line GP2d
  IC50: > 30 µM
HCC15, cell line HCC-15, lung
  IC50: 15.5 µM
HCC366, cell line HCC-366, lung
  IC50: > 30 µM
HCC366, cell line HCC-366
  IC50: > 30 µM
HCC1171, cell line HCC-1171, lung
  IC50: 26.9 µM
[28]
  IC50: > 30 µM
  EC50: 8.24 µM
HCC1500, cell line HCC1500
  IC50: > 30 µM
HEC-6, cell line HEC-6, endometrium
  IC50: > 30 µM
HEC-6, cell line HEC-6
  IC50: > 30 µM
HEC-50B, cell line HEC-50B, endometrium
  IC50: > 30 µM
